These are literature values, as cited in patent publication US20150133409A1, “TOPICAL OPHTHALMIC, OTIC, AND NASAL COMPOSITIONS OF CIPROFLOXACIN” (priority 2013, published 2015).

For the series the following is noted: aqueous 0.2 to 1 weight percent ciprofloxacin.

Read-outs that look alike come from different tables or passages of the source.

Turning to `O=C(O)c1cn(C2CC2)c2cc(N3CCNCC3)c(F)cc2c1=O` [ciprofloxacin], the “pH at which crystalline precipitation of ciprofloxacin occurs” value is “above 5” (5° C.) and “above 5.5” (room temperature).
